Data on 88 compounds can be found in a melting point compilation (Tetko et al.; mined from patent text by program, amines drawn as free bases though some values may be those of a salt).

A word on the melting point: it is the temperature, or range, at which the solid turns liquid.

In the case of `Cc1oc(C2CC2)nc1COc1ccc(CC(OC(C)C)C(=O)O)c2sccc12` (stereo not drawn), the melting point was 71 to 72 °C.

Turning to `O=C1NC(=O)C(C2CCCC2)C(=O)N1`, the melting point fell in the range of 222 to 223 °C.

`CCOC(=O)OC1Oc2ccc(OS(C)(=O)=O)cc2C1(C)C` (stereo not drawn): the melting point was in the range of 85 to 87 °C.

Regarding `Cc1cc(Cl)ccc1Oc1ccc(NC(=O)N2CCc3ccccc3CC2)cn1`, the melting point was 151 to 153 °C.

Turning to `Cc1cccc(C(=O)Nc2nc3ccccc3c(NCc3ccccc3)c2C#N)c1`, the melting point worked out at 230 °C.

On to `N#Cc1cnn2c(C(F)(F)F)cc(-c3ccc(C(F)(F)F)cc3)nc12`, for which the melting point was found to be 176 °C.

Compound `C=C(C)C(=O)NC1(C(=O)O)CCCCC1` came in with a melting point of 176 to 178 °C.

As for `CCS(=O)(=O)CC(=O)c1cc(C(C)(C)C)c(O)c(C(C)(C)C)c1`, the melting point was determined as 120 °C.

In turn, `CCCCCCc1cc2c(s1)-n1c(C)nnc1CN=C2c1ccc(OC)cc1` showed a melting point of 97 to 99 °C.

In the case of `Cn1nnnc1-c1cnc2ccc(F)cc2c1O`, the melting point was more than 300 °C.

As for `CC(C)(C)c1cc(SCN2CCN(CSc3cc(C(C)(C)C)c(O)c(C(C)(C)C)c3)C2=O)cc(C(C)(C)C)c1O`, the melting point was in the range of 173 to 176 °C.

The compound `O=Cc1ccc(OS(=O)(=O)C(F)(F)F)cc1Cl` yielded a melting point of 125 to 127 °C.

On to `Nc1ncc2c(n1)-c1ccc(Cl)cc1C(c1ccccc1F)=NC2`, for which the melting point is 245 to 248 °C.

`O=C(O)c1ccc(NCCNC(=O)C2Cc3ccccc3N2S(=O)(=O)c2ccc(-c3cc(C(F)(F)F)ccc3Cl)cc2)cc1` (stereo not drawn) had a melting point of 130 °C.

Compound `NC(=O)c1cc(C(=O)CN(Cc2ccccc2)Cc2ccccc2)ccc1OCCCCOC1CCCCO1` (stereo not drawn) yielded a melting point of 118 to 123 °C.

The compound `N#Cc1ccc(N2CC(C(=O)O)OC2=O)cc1` (stereo not drawn) yielded a melting point of 204 °C.

In turn, `CC(NC(=O)c1cc2ccccc2[nH]1)C(=O)O` (racemic) gave a melting point of 240 °C.

`Cc1c(OCC(F)(F)F)ccnc1CS(=O)c1nc2cc(N3CCN(C)CC3)c(F)cc2[nH]1` (stereo not drawn) returned a melting point of 73 to 74 °C.

For the compound `Cc1c(NCCNC(=O)OC(C)(C)C)c([N+](=O)[O-])c2nnnn2c1C`, the melting point was 145 to 147 °C.

`COC(=O)C1=CC(NC(=O)OC(C)(C)C)CO1` (stereo not drawn) came in with a melting point of 94 to 96 °C.

In turn, `COc1cccc(NC(=O)NCC2(c3ccccc3)CCCCC2)c1` returned a melting point of 120 to 122 °C.

For `N[C@@H](COc1cccc(Cl)n1)c1ccccc1`, the melting point was in the range of 56 to 57 °C.

Turning to `O=C(c1ccccc1)C1OC1c1ccccc1Cl` (stereo not drawn), the melting point is 132 °C.

Compound `COC(=O)c1ccc(Cl)c(CN2CCSC2=NC#N)c1Cl` returned a melting point of 158 °C.

For the compound `CS(=O)(=O)Cc1cc(C(=O)CBr)ccc1OCc1ccccc1`, the melting point lay in the range of 143 to 144 °C.

On to `CC1(C)CC(=C(c2ccc(O)cc2)c2ccc(C#CCCO)cc2)CC(C)(C)C1`, for which the melting point lay within 183 to 184 °C.

The compound `CN(C)CCc1ccc(NC=O)c2[nH]ncc12` showed a melting point of 210 to 211 °C.

In the case of `[N-]=[N+]=NC(C(=O)O)c1ccsc1` (stereo not drawn), the melting point fell in the range of 58 to 59 °C.

Compound `Cc1ccn(-c2ccc(S(C)(=O)=O)cc2)c1-c1ccc(OC(F)F)cc1` returned a melting point of 98 to 99 °C.

`COC(=O)[C@H](CCSC)NC(=O)c1ccc(/C=C(/Cn2ccnc2)c2nccs2)cc1-c1ccccc1` gave a melting point of 122 to 124 °C.

Turning to `CS(=O)(=O)c1ccc(C(CC2CCCC2)C(=O)Nc2ccccn2)cc1C(F)(F)F` (stereo not drawn), the melting point lay in the range of 86 to 89 °C.

`CCOP(=O)(OCC)C(CC(NC(=O)OC(C)(C)C)C(=O)c1ccccc1)P(=O)(OCC)OCC` (stereo not drawn) returned a melting point of 56 to 57 °C.

`CC(C)(O)P(=O)(c1ccccc1)c1ccccc1` displayed a melting point of 96 to 98 °C.

As for `O=C1CCC(n2cnc3cccc(Cl)c3c2=O)C(=O)N1` (stereo not drawn), the melting point was in the range of 308 to 310 °C.

For `CC[C@H](Cn1ncnn1)n1cnc2cc3c(=O)n([C@H](C)Cn4ncnn4)nnc3cc2c1=O`, the melting point was 80 to 82 °C.

Take `CC=CCn1c(C)c(C)c2cnnc(SCc3c(F)cccc3Cl)c21`: the melting point was 95 to 117 °C.

Consider `COc1ccc(Cl)cc1N1C(=O)CN(C)C1=S`, for which the melting point was 245 to 247 °C.

`CC1(NC(=O)c2ccccc2)COC(c2nc(-c3ccc(F)cc3)c(-c3ccncc3)[nH]2)OC1` (stereo not drawn) registered a melting point of 235 to 236 °C.

The compound `CCOC(OCC)N1CCNC1=N[N+](=O)[O-]` showed a melting point of 100 to 102 °C.

Turning to `Nc1ccc(Oc2ncc(C(F)(F)F)cc2Cl)cc1`, the melting point is 85 to 87 °C.

For the compound `COc1ccc(-c2nc3cc(F)ccc3s2)cc1OC(=O)c1ccccc1Br`, the melting point was in the range of 220 to 223 °C.

`CCCCCCOc1cc(C=O)c(OCCCCCC)cc1C=O` yielded a melting point of 74.5 to 76 °C.

With `CS(=O)(=O)c1ccc(C(=O)C(C#N)C(=O)C2CC2)c(Cl)c1-c1nccs1` (stereo not drawn), the melting point lay within 162 to 164 °C.

Regarding `CCSc1cc(C)nc(SCC)c1NC(=O)CCCCCCCCSc1nc2ccccc2s1`, the melting point is 88 to 92 °C.

Compound `CCn1nc(OCCCCc2ccc(OC(C)C)cc2Oc2ncc(C(F)(F)F)cc2Cl)cc1CCC(=O)O` registered a melting point of 129 to 130 °C.

For `COc1cccc(-c2cnc(-c3ccoc3)s2)c1`, the melting point lay in the range of 61 to 62 °C.

`CCCCCCN(Cc1ccc(-c2ccccc2-c2nnn[nH]2)cc1)c1ncc(C(=O)O)s1` registered a melting point of 113 to 117 °C.

With `Cc1ccc(C(=O)Nc2ccc(-n3ccnc3)c(C(F)(F)F)c2)cc1Nc1nccc(-c2cccnc2)n1`, the melting point is 226 to 229 °C.

For `Cc1ccc(OC(C(=O)OC2CC(O)C=C3C=CC(C)C(CCC4CC(O)CC(=O)O4)C32)c2ccccc2)cc1` (mixture of isomers), the melting point fell in the range of 130 to 133 °C.

The compound `C=Cc1ccc(CC(N)=O)nc1` had a melting point of 120 to 121 °C.

With `CCOc1c([C@@H]2C[C@H]2C=O)cc(C(C)(C)C)cc1C(C)(C)C` (racemic), the melting point lay within 123 to 126 °C.

In the case of `O=C1c2ccccc2C(=O)N1CCCCc1ccco1`, the melting point was in the range of 61 to 63 °C.

On to `CN1Cn2cc(CO)cc2-c2ccccc21`, for which the melting point was 74 to 76 °C.

Compound `Cc1ccc2c(c1)C1CNCCC1N2` (stereo not drawn) had a melting point of 73 to 75 °C.

Take `CCN(CC)CCCCNc1ncc2c(n1)NC(=O)N(c1cc(OC)cc(OC)c1)C2`: the melting point fell in the range of 203 to 207 °C.

`COc1cc(OC)nc(NC(=O)NS(=O)(=O)Oc2ccccc2C(=O)OCCCl)n1` showed a melting point of 148 to 150 °C.

As to `O=C1C=C/C(=C/c2cccc(C(F)(F)F)c2)O1`, the melting point is 69 to 71 °C.

`Cc1cc(Nc2ccc(NC(=O)c3ccc(Nc4ccnc5ccc(Cl)cc45)cc3)cc2)nc(N)n1` yielded a melting point of 250 to 254 °C.

The compound `NCc1ccc2c(c1)ncn2-c1cccc(-c2ccccn2)c1` returned a melting point of 224 to 229 °C.

With `O=C1CNc2ncc(I)cc2N1Cc1ccccc1`, the melting point is 225 °C.

Consider `CC(CCNC(=O)C(C#N)=Cc1cc(O)c(O)c(O)c1)NC(=O)C(C#N)=Cc1cc(O)c(O)c(O)c1` (stereo not drawn), for which the melting point is more than 300 °C.

As for `CCOC(=O)CNc1c(Br)cc(Br)cc1Br`, the melting point lay within 81 to 82 °C.

The compound `CCN1C(=O)C(C)(C)C(=O)N(C)c2cc(CN(CCn3ccc4oc(C)cc4c3=O)Cc3cccc(C=O)c3)ccc21` showed a melting point of 79 to 84 °C.

On to `COC(=O)Cc1cn(Cc2ccccc2)nc1OCCCc1cc(O)nn1Cc1ccc(Cl)cc1Cl`, for which the melting point was 106 to 107 °C.

For `O=c1oc(C(F)(F)F)nc2ccc(I)cc12`, the melting point fell in the range of 131 to 132 °C.

As for `O=C(CCO)Cc1cccc(OCc2ccc3ccccc3n2)c1`, the melting point is 116 to 119 °C.

As for `CCOC(=O)/C=C/c1ccc(OCC)nc1Oc1ccc(Cl)cc1Cl`, the melting point fell in the range of 90 to 92 °C.

In turn, `O=C(CCCOc1ccc2nc3[nH]c(=O)[nH]c3cc2c1)NC1CCCCCC1` gave a melting point of 314 to 316 °C.

Take `Nc1cccc(-c2ccc(CCN3CCN(C(=O)Cc4ccccc4)CC3)cc2)n1`: the melting point fell in the range of 135 to 137 °C.

As to `CC(=O)n1cc(Cl)c(-c2cccc(Cl)c2)c1`, the melting point fell in the range of 88 to 90 °C.

Regarding `O=C(C(=Cc1cccc(C(F)(F)F)c1)C(=O)C1CC1)C1CC1`, the melting point lay within 56 to 58 °C.

For `O=C1C[C@H](C(=O)Nc2ccc(N3CCOCC3=O)cc2)N(C(=O)Nc2ccc(Cl)cc2)C1`, the melting point was 154 °C.

`CN(c1cccc2cc(-c3nccs3)[nH]c12)S(=O)(=O)c1ccsc1C(=O)O` returned a melting point of 225 °C.

In the case of `COC(=O)c1nc(NCC(O)CO)cnc1[N+](=O)[O-]` (stereo not drawn), the melting point lay in the range of 107 to 109 °C.

The compound `COc1cc2c(cc1OC)-c1cc(OC)c(OC)cc1C2=Cc1ccnc2ccccc12` came in with a melting point of 226 to 228 °C.

As to `CCC(=O)CS(=O)(=O)c1ccc(OS(=O)(=O)c2ccc(C)cc2)cc1`, the melting point is 104 to 106 °C.

Compound `N#CCC(O)(c1ccccc1)c1ccccc1` registered a melting point of 136 to 138 °C.

Turning to `CN1CCc2c(c3ccccc3n2CCc2nc(-c3ccccc3)cs2)C1`, the melting point was in the range of 128 to 130 °C.

The compound `CC(=O)OCc1ccc(-c2ccc(COC(C)=O)cc2)cc1` gave a melting point of 86 to 87 °C.

Take `COc1ccc(C(=O)CCCN2CCC(OC(=O)c3cc(Cl)c(N)c4c3OCC4)CC2)cc1`: the melting point was 136 °C.

`O=c1[nH]nc(-c2ccc(NN=C(c3ccc(O)cc3)c3ccc(O)cc3O)cc2)c2ccccc12` displayed a melting point of 150 to 160 °C.

For the compound `N#Cc1c(N2CCc3ccccc3CC2)nc2[nH]ccn2c1=O`, the melting point was more than 200 °C.

`COCc1nc2nccnc2c(=O)[nH]1` registered a melting point of 187 to 189 °C.

As to `CS(=O)(=O)Nc1cc(C(=O)C=O)ccc1OCc1ccccc1`, the melting point fell in the range of 125 to 128 °C.

As for `COC(=O)c1ccn2ncnc2c1`, the melting point was 125 to 126 °C.

`NNc1nncc(-c2ccccc2)n1` showed a melting point of 144 to 146 °C.

In turn, `OC(CCc1ccccc1)c1cnc2sc3ccccc3n12` (stereo not drawn) had a melting point of 174 to 175 °C.

For the compound `CC(C)(C)OC(=O)N1CCS(=O)(=O)C1`, the melting point fell in the range of 106 to 107 °C.
